# Measurements: US12077503B2, “Substituted cyclic amides and their use as herbicides” (FMC CORPORATION, priority 2015, dated 2024)
# Like-named read-outs stand apart in the source and are kept apart here.
# What was measured:
# Format in all cases: in vivo
# [1] = test system: wheat (Triticum aestivum); assay: Test A postemergence; conditions: Triticum aestivum, post-emergence, 240 h, postemergence; for plant injury at 125 g/ha: 125 g ai/ha
# Outline: (§1)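 Visual injury, scored on a 0–100 scale relative to untreated controls, was recorded about 10 d after application. Treatments were a preemergence soil spray over planted seeds or a postemergence spray on plants at the one- to two-leaf stage, 2 to 10 cm tall, all in loam soil–sand blend in the greenhouse.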
# [2] = test system: ragweed (common ragweed, Ambrosia elatior); assay: Test A postemergence; conditions: Ambrosia artemisiifolia, post-emergence, 240 h, postemergence; for pest or weed control at 125 g/ha: 125 g ai/ha
# Outline: as §1
# [3] = test system: ryegrass, Italian (Italian ryegrass, Lolium multiflorum); assay: Test A postemergence; conditions: Lolium multiflorum, post-emergence, 240 h, postemergence; for pest or weed control at 125 g/ha: 125 g ai/ha
# Outline: as §1
# [4] = test system: corn (Zea mays); assay: Test A postemergence; conditions: Zea mays, post-emergence, 240 h, postemergence; for plant injury at 125 g/ha: 125 g ai/ha
# Outline: as §1
# [5] = test system: giant foxtail (Setaria faberii); assay: Test A postemergence; conditions: Setaria faberi, post-emergence, 240 h, postemergence; for pest or weed control at 125 g/ha: 125 g ai/ha
# Outline: as §1
# [6] = test system: barnyardgrass (Echinochloa crus-galli); assay: Test A postemergence; conditions: Echinochloa crus-galli, post-emergence, 240 h, postemergence; for pest or weed control at 125 g/ha: 125 g ai/ha
# Outline: as §1
# [7] = test system: blackgrass (Alopecurus myosuroides); assay: Test A postemergence; conditions: Alopecurus myosuroides, post-emergence, 240 h, postemergence; for pest or weed control at 125 g/ha: 125 g ai/ha
# Outline: as §1
# [8] = test system: pigweed (Amaranthus retroflexus); assay: Test A postemergence; conditions: Amaranthus retroflexus, post-emergence, 240 h, postemergence; for pest or weed control at 125 g/ha: 125 g ai/ha
# Outline: as §1
# [9] = test system: Kochia (Kochia scoparia); assay: Test A postemergence; conditions: Bassia scoparia, post-emergence, 240 h, postemergence; for pest or weed control at 125 g/ha: 125 g ai/ha
# Outline: as §1
# [10] = test system: Galium (catchweed bedstraw, Galium aparine); assay: Test A postemergence; conditions: Galium, post-emergence, 240 h, postemergence; for pest or weed control at 125 g/ha: 125 g ai/ha
# Outline: as §1
# [11] = test system: ducksalad (Heteranthera limosa); assay: Test B flooded paddy test; conditions: Heteranthera limosa, Flood, 250 g ai/ha, read-out: Ducksalad plant response rating
# Outline: (§2)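 Rating scale 0–100 (visual, vs untreated controls) after a 13–15 d greenhouse period; application to the flood layer, 3 cm above soil and maintained; plants at 2-leaf stage when treated.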
# [12] = test system: rice (Oryra sativa); assay: Test B flooded paddy test; conditions: Oryza sativa, Flood, 250 g ai/ha, read-out: Rice plant response rating
# Outline: as §2
# [13] = test system: barnyardgrass (Echinochloa crus-galli); assay: Test B flooded paddy test; conditions: Echinochloa crus-galli, Flood, 250 g ai/ha, read-out: Barnyardgrass plant response rating
# Outline: as §2
# [14] = test system: sedge, umbrella (small-flower umbrella sedge, Cyperus difformis); assay: Test B flooded paddy test; conditions: Cyperus difformis, Flood, 250 g ai/ha, read-out: Sedge, Umbrella plant response rating
# Outline: as §2
# [15] = test system: pigweed (Amaranthus retroflexus); assay: Test A preemergence; conditions: Amaranthus retroflexus, pre-emergence, 240 h; for pest or weed control at 125 g/ha: 125 g ai/ha, 0 to 100 scale where 0 is no effect and 100 is complete control; for pest or weed control at 500 g/ha: 500 g ai/ha
# [16] = visual injury rating after approximately 10 d, read-out: Wheat plant response rating (0 to 100 scale, 0 no effect, 100 complete control)
# [17] = visual injury rating after approximately 10 d, read-out: Ragweed plant response rating (0 to 100 scale, 0 no effect, 100 complete control)
# [18] = visual injury rating after approximately 10 d, read-out: Ryegrass, Italian plant response rating (0 to 100 scale, 0 no effect, 100 complete control)
# [19] = visual injury rating after approximately 10 d, read-out: Corn plant response rating (0 to 100 scale, 0 no effect, 100 complete control)
# [20] = visual injury rating after approximately 10 d, read-out: Foxtail, Giant plant response rating (0 to 100 scale, 0 no effect, 100 complete control)
# [21] = visual injury rating after approximately 10 d, read-out: Barnyardgrass plant response rating (0 to 100 scale, 0 no effect, 100 complete control)
# [22] = visual injury rating after approximately 10 d, read-out: Blackgrass plant response rating (0 to 100 scale, 0 no effect, 100 complete control)
# [23] = visual injury rating after approximately 10 d, read-out: Pigweed plant response rating (0 to 100 scale, 0 no effect, 100 complete control)
# [24] = visual injury rating after approximately 10 d, read-out: Kochia plant response rating (0 to 100 scale, 0 no effect, 100 complete control)
# [25] = visual injury rating after approximately 10 d, read-out: Galium plant response rating (0 to 100 scale, 0 no effect, 100 complete control)
# [26] = scale of 0 to 100 where 0 is no effect and 100 is complete control
# [27] = preemergence, read-out: Pigweed plant response rating
# [28] = Preemergence, visual injury vs untreated controls after approximately 10 d, read-out: Pigweed plant response rating (0 to 100 scale where 0 is no effect and 100 is complete control)
# [29] = 0 to 100 scale where 0 is no effect and 100 is complete control
smiles,measurement,setting,value
COc1c(F)ccc([C@H]2CNC(=O)[C@@H]2C(=O)Nc2ccccc2F)c1Cl [Compound 881],plant injury at 125 g/ha,[1]; [16],0%
same,pest or weed control at 125 g/ha,[2]; [17],0%
same,pest or weed control at 125 g/ha,[3]; [18],30%
same,plant injury at 125 g/ha,[4]; [19],0%
same,pest or weed control at 125 g/ha,[5]; [20],80%
same,pest or weed control at 125 g/ha,[6]; [21],90%
same,pest or weed control at 125 g/ha,[7]; [22],0%
same,pest or weed control at 125 g/ha,[8]; [23],0%
same,pest or weed control at 125 g/ha,[9]; [24],30%
same,pest or weed control at 125 g/ha,[10]; [25],0%
same,pest or weed control at 250 g/ha,[11]; [26],100%
same,pest or weed control at 250 g/ha,[12]; [26],15%
same,pest or weed control at 250 g/ha,[13]; [26],45%
same,pest or weed control at 250 g/ha,[14]; [26],0%
same,pest or weed control at 125 g/ha,[15]; [27],0%
same,pest or weed control at 500 g/ha,[15]; [28],0%
CSc1ccccc1NC(=O)C1C(=O)NCC1C=C(C)C (centres unmarked) [Compound 1055],plant injury at 125 g/ha,"[1]; visual injury on 0 to 100 scale (0 no effect, 100 complete control), approx. 10 d, read-out: Wheat plant response rating",0%
same,plant injury at 500 g/ha,"[1]; 500 g ai/ha, 0 to 100 scale, 0 is no effect, 100 is complete control, read-out: Wheat plant response rating",0%
same,pest or weed control at 125 g/ha,"[2]; visual injury on 0 to 100 scale (0 no effect, 100 complete control), approx. 10 d, read-out: Ragweed plant response rating",0%
same,pest or weed control at 500 g/ha,"[2]; 500 g ai/ha, 0 to 100 scale, 0 is no effect, 100 is complete control, read-out: Ragweed plant response rating",0%
same,pest or weed control at 125 g/ha,"[3]; visual injury on 0 to 100 scale (0 no effect, 100 complete control), approx. 10 d, read-out: Ryegrass, Italian plant response rating",0%
same,pest or weed control at 500 g/ha,"[3]; 500 g ai/ha, 0 to 100 scale, 0 is no effect, 100 is complete control, read-out: Ryegrass, Italian plant response rating",0%
same,plant injury at 125 g/ha,"[4]; visual injury on 0 to 100 scale (0 no effect, 100 complete control), approx. 10 d, read-out: Corn plant response rating",0%
same,plant injury at 500 g/ha,"[4]; 500 g ai/ha, 0 to 100 scale, 0 is no effect, 100 is complete control, read-out: Corn plant response rating",0%
same,pest or weed control at 125 g/ha,"[5]; visual injury on 0 to 100 scale (0 no effect, 100 complete control), approx. 10 d, read-out: Foxtail, Giant plant response rating",0%
same,pest or weed control at 500 g/ha,"[5]; 500 g ai/ha, 0 to 100 scale, 0 is no effect, 100 is complete control, read-out: Foxtail, Giant plant response rating",0%
same,pest or weed control at 125 g/ha,"[6]; visual injury on 0 to 100 scale (0 no effect, 100 complete control), approx. 10 d, read-out: Barnyardgrass plant response rating",0%
same,pest or weed control at 500 g/ha,"[6]; 500 g ai/ha, 0 to 100 scale, 0 is no effect, 100 is complete control, read-out: Barnyardgrass plant response rating",0%
same,pest or weed control at 125 g/ha,"[7]; visual injury on 0 to 100 scale (0 no effect, 100 complete control), approx. 10 d, read-out: Blackgrass plant response rating",0%
same,pest or weed control at 500 g/ha,"[7]; 500 g ai/ha, 0 to 100 scale, 0 is no effect, 100 is complete control, read-out: Blackgrass plant response rating",0%
same,pest or weed control at 125 g/ha,"[8]; visual injury on 0 to 100 scale (0 no effect, 100 complete control), approx. 10 d, read-out: Pigweed plant response rating",0%
same,pest or weed control at 500 g/ha,"[8]; 500 g ai/ha, 0 to 100 scale, 0 is no effect, 100 is complete control, read-out: Pigweed plant response rating",0%
same,pest or weed control at 125 g/ha,"[9]; visual injury on 0 to 100 scale (0 no effect, 100 complete control), approx. 10 d, read-out: Kochia plant response rating",0%
same,pest or weed control at 500 g/ha,"[9]; 500 g ai/ha, 0 to 100 scale, 0 is no effect, 100 is complete control, read-out: Kochia plant response rating",0%
same,pest or weed control at 125 g/ha,"[10]; visual injury on 0 to 100 scale (0 no effect, 100 complete control), approx. 10 d, read-out: Galium plant response rating",0%
same,pest or weed control at 500 g/ha,"[10]; 500 g ai/ha, 0 to 100 scale, 0 is no effect, 100 is complete control, read-out: Galium plant response rating",0%
same,pest or weed control at 250 g/ha,[11]; [29],30%
same,pest or weed control at 250 g/ha,[12]; [29],0%
same,pest or weed control at 250 g/ha,[13]; [29],0%
same,pest or weed control at 250 g/ha,[14]; [29],0%
same,pest or weed control at 125 g/ha,"[15]; preemergence, approx. 10 d, read-out: Pigweed plant response rating",0%
same,pest or weed control at 500 g/ha,"[15]; preemergence, visual injury rating about 10 d after treatment, 0 to 100 scale (0 no effect, 100 complete control), read-out: Pigweed plant response rating",0%
Cc1cc(C)cc([C@H]2CNC(=O)[C@@H]2C(=O)Nc2ccccc2C(F)(F)F)c1 [Compound 909],plant injury at 125 g/ha,[1]; [16],0%
same,pest or weed control at 125 g/ha,[2]; [17],0%
same,pest or weed control at 125 g/ha,[3]; [18],0%
same,plant injury at 125 g/ha,[4]; [19],0%
same,pest or weed control at 125 g/ha,[5]; [20],40%
same,pest or weed control at 125 g/ha,[6]; [21],50%
same,pest or weed control at 125 g/ha,[7]; [22],0%
same,pest or weed control at 125 g/ha,[8]; [23],0%
same,pest or weed control at 125 g/ha,[9]; [24],0%
same,pest or weed control at 125 g/ha,[10]; [25],0%
same,pest or weed control at 250 g/ha,[11]; [26],70%
same,pest or weed control at 250 g/ha,[12]; [26],0%
same,pest or weed control at 250 g/ha,[13]; [26],40%
same,pest or weed control at 250 g/ha,[14]; [26],0%
same,pest or weed control at 125 g/ha,[15]; [27],0%
same,pest or weed control at 500 g/ha,[15]; [28],0%
CC(C)c1cccc([C@H]2CN(C)C(=O)[C@@H]2C(=O)Nc2ccccc2S(C)(=O)=O)c1 [Compound 820],plant injury at 125 g/ha,[1]; [16],40%
same,pest or weed control at 125 g/ha,[2]; [17],20%
same,pest or weed control at 125 g/ha,[3]; [18],30%
same,plant injury at 125 g/ha,[4]; [19],30%
same,pest or weed control at 125 g/ha,[5]; [20],90%
same,pest or weed control at 125 g/ha,[6]; [21],90%
same,pest or weed control at 125 g/ha,[7]; [22],40%
same,pest or weed control at 125 g/ha,[8]; [23],20%
same,pest or weed control at 125 g/ha,[9]; [24],20%
same,pest or weed control at 125 g/ha,[10]; [25],30%
same,pest or weed control at 250 g/ha,[11]; [26],75%
same,pest or weed control at 250 g/ha,[12]; [26],0%
same,pest or weed control at 250 g/ha,[13]; [26],60%
same,pest or weed control at 250 g/ha,[14]; [26],0%
same,pest or weed control at 125 g/ha,[15]; [27],40%
same,pest or weed control at 500 g/ha,[15]; [28],70%
